Data set [1] can be described thus: Cytotoxicity against human Chang cells by MTT assay. Type of data set: toxicity, cell-based. In general terms: Tetrazolium dyes change colour on reduction, which living cells bring about.
Data set [2] in a line: Cytotoxicity against human SiHa cells by MTT assay. It counts as functional, cell-based.
Data set [3] in a line: Cytotoxicity against mouse B16F10 cells by MTT assay. The note with it: B16-F10. It counts as functional, cell-based.
In data set [4] the test system is B16-F10. Nature of the data set: Induction of apoptosis in mouse B16F10 cells assessed as caspase-3 activation using Ac-DEVD-pNA as substrate by spectrophotometric analysis. Type of data set: functional.
For data set [5], the system named is B16-F10. Nature of the data set: Induction of apoptosis in mouse B16F10 cells assessed as formation of organized shedding vesicles by microscopic analysis. It counts as functional, cell-based.
The subject of data set [6] is B16-F10. Nature of the data set: Induction of changes in cell death related gene expression in mouse B16F10 cells by GenArise analysis. Type of data set: functional, cell-based.
Data set [7] relates to B16-F10. Briefly: Effect on tubulin gene expression in mouse B16F10 cells by GenArise analysis. It counts as functional, cell-based.
The test system of data set [8] is B16-F10. Nature of the data set: Induction of changes in cytoskeleton and cell division processes related gene expression in mouse B16F10 cells by GenArise analysis. Type of data set: functional, cell-based.

Activity calls are given as the source filed them. No cut-off for these calls is given here.

This note sets out measurements from ChEMBL document CHEMBL3870355, “Biological Evaluation in Vitro and in Silico of Azetidin-2-one Derivatives as Potential Anticancer Agents” (ACS Med Chem Lett, 2017).

On to `COc1ccc(N2C(=O)[C@@H](Oc3ccccc3)[C@H]2c2ccccc2[N+](=O)[O-])cc1`, for which the IC50 in data set [1] was 3730 nM; in data set [2], 220 nM; in data set [3], 4820 nM.
`O=C1C(Oc2ccccc2)C(c2ccncc2)N1c1nc2ccccc2s1` (racemic): the IC50 in data set [1] came out at 1030 nM; in data set [2], 1340 nM; in data set [3], 1700 nM.
Take `O=C1C(Oc2ccccc2)C(c2ccco2)N1c1nc2ccccc2s1` (racemic): the figures for the IC50 in data set [1], in data set [2] and in data set [3] were 17 nM, 330 nM and 340 nM, respectively. Besides, in the data set on B16-F10 [4], the Activity is 93%.
As for `O=C1C(Oc2ccccc2)C(c2ccc(Cl)cc2)N1c1nc2ccccc2s1` (racemic), the IC50 in data set [1] worked out at 230 nM; in data set [2], 90 nM; in data set [3], 310 nM.
With `O=C1C(Oc2ccccc2)C(c2ccc([N+](=O)[O-])cc2)N1c1nc2ccccc2s1` (racemic), the IC50 turned out to be 70 nM in data set [1], 120 nM in data set [2] and 450 nM in data set [3].
Turning to `COc1ccc(N2C(=O)[C@@H](Oc3ccccc3)[C@H]2c2ccc(C)cc2)cc1` (relative stereo), the outcome with B16-F10 [5], in the data set with B16-F10 [6], with B16-F10 [7] and with B16-F10 [8] was Active. Also, the IC50 in data set [1] was over 10000 nM; in data set [2] it was 70 nM; in data set [3] it was 1210 nM. The Activity with B16-F10 [4] stood at 100%.
For the compound `COc1ccc(N2C(=O)[C@@H](OC)[C@H]2c2ccc([N+](=O)[O-])cc2)cc1` (relative stereo), the IC50 in data set [1] is over 10000 nM; in data set [2] it was 8130 nM; in data set [3], 2080 nM. Besides, the Activity in the data set with B16-F10 [4] came to 88%.
Regarding `COc1ccc(N2C(=O)[C@@H](OC)[C@H]2c2ccccc2[N+](=O)[O-])cc1` (relative stereo), the results for the IC50 in data set [1], in data set [2] and in data set [3] were 9750 nM, 7290 nM and 2910 nM, respectively.
As for `COc1ccc(N2C(=O)[C@@H](OC)[C@H]2c2ccc(C)cc2)cc1` (relative stereo), the IC50 was 3920 nM in data set [1], 730 nM in data set [2] and 4120 nM in data set [3].
For `COc1ccc([C@@H]2[C@H](OC)C(=O)N2c2ccc(OC)cc2)cc1` (relative stereo), the IC50 in data set [1] amounted to 8380 nM; in data set [2], 6360 nM; in data set [3], 2050 nM.
For `COc1ccc([C@@H]2[C@H](Oc3ccccc3)C(=O)N2c2ccc(OC)cc2)cc1` (relative stereo), the IC50 in data set [1] was 630 nM; in data set [2], 420 nM; in data set [3] it was 9700 nM.
For `COc1ccc(N2C(=O)[C@@H](OC)[C@H]2c2ccc(Cl)cc2)cc1` (relative stereo), the IC50 was 3410 nM in data set [1], 8610 nM in data set [2] and over 10000 nM in data set [3].
Regarding `COc1ccc(N2C(=O)[C@@H](Oc3ccccc3)[C@H]2c2ccc([N+](=O)[O-])cc2)cc1` (relative stereo), the results for the IC50 in data set [1], in data set [2] and in data set [3] were 2080 nM, 3640 nM and 870 nM, respectively.
`COc1ccc(N2C(=O)[C@@H](OC)[C@H]2c2ccc(F)cc2)cc1` (relative stereo): the IC50 in data set [1] is 7570 nM; in data set [2], 2890 nM; in data set [3], 2820 nM.
For `COc1ccc(N2C(=O)[C@@H](Oc3ccccc3)[C@H]2c2ccc(F)cc2)cc1` (relative stereo), the IC50 in data set [1] turned out to be 740 nM; in data set [2], 80 nM; in data set [3], 3260 nM.
`COc1ccc(N2C(=O)[C@@H](Oc3ccccc3)[C@H]2c2ccccc2)cc1` (relative stereo): the IC50 in data set [1] was found to be 2850 nM; in data set [2], 200 nM; in data set [3] it was 280 nM.
In the case of `COc1cc([C@@H]2c3cc4c(cc3[C@H](O)[C@H]3COC(=O)[C@H]23)OCO4)cc(OC)c1OC` [PODOFILOX], the outcome with B16-F10 [5] was Active. The Activity in the data set on B16-F10 [4] is 100%.
As for `CC[C@]1(O)C[C@H]2CN(CCc3c([nH]c4ccccc34)[C@@](C(=O)OC)(c3cc4c(cc3OC)N(C=O)[C@H]3[C@@](O)(C(=O)OC)[C@H](OC(C)=O)[C@]5(CC)C=CCN6CC[C@]43[C@@H]65)C2)C1` [VINCRISTINE], the IC50 in data set [1], in data set [2] and in data set [3] was 10 nM throughout.

In general, IC50 refers to the concentration at which inhibition is half-maximal. Read a high IC50 as a need for much substance.
